According to US20180353443A1, “CURCUMIN-BASED COMPOSITIONS & METHODS OF USE THEREOF” (priority 2015, published 2018):

Assays:
Type in all cases: cell-based
[1] = system: NFkB-p65 serine 276 phosphorylation; test: Western blot of NFkB-p65 phosphorylated at serine 276 in BV2 cells; settings: 22.0 μg/ml curcuminoid, LPS induction, FIGS. 6 and 7
Procedure: (§1) Western blot analysis was performed in multiple varying formats before optimization was achieved. The BV2 microglia cell line was cultured in Dulbecco's Modified Eagle's Medium (DMEM)—complete medium. The complete medium consisted of DMEM, 1% Ampicillin, and 10% Fetal Bovine Serum (FBS). BV2 microglia cells, at a cell count of approximately 2×10^6, were seeded in each well (6 wells per plate) with 2.0 ml complete medium and cultured overnight in a ThermaForma HepaFilter Series II Co2 Incubator at 37° Celsius. Upon establishing confluence, subconfluent cells were washed out and the wells were prepared with drug pre-treatment after overnight incubation.
(§2) The test drugs (curcuminoids) were procured as follows: curcumin I research standard (03926) (ChromaDex Irvine, Calif. USA) (97.7% purity); curcumin II research standard (04230) (ChromaDex Irvine, Calif. USA) (97.3%); curcumin III research standard (B6938) (Sigma-Aldrich St. Louis, Mo., USA) (97.7% purity); curcumin extract (curcumin I—77.7%, curcumin II—16.9%, curcumin III—0.9%) research standard (03928) (ChromaDex Irvine, Calif. USA) (95.3% purity); and Lipopolysaccharide (LPS) from E. Coli (L2630) (Sigma-Aldrich St. Louis, Mo., USA).
(§3) Curcuminoids are not soluble in aqueous medium due to their hydrophobic characteristic. However, curcuminoid extracts are soluble in polar organic solvents, such as DMSO and acetone. In this Example, each curcuminoid preparation was first dissolved in DMSO. DMSO was used in the drug preparation at 0.2%. The drug/DMSO solution was subsequently dissolved in DMEM to achieve a final drug concentration for each curcuminoid preparation tested—22.0 μg/ml curcuminoid. […]
(§4) Total protein concentration for each fraction was determined using a Bio Rad Protein Assay that is based on the Bradford Assay (dye-binding method). […]
(§5) The targets analyzed in the Western Blot included NFkB-p65 and its nucleocytoplasmic translocation, as well as kinases (including MSK1) and their covalent modifications upstream of and involved in the regulation of NFkB. […]

[2] = system: NFkB-p65; test: Western blot of cytoplasmic and nuclear NFkB-p65 (nucleotranslocation) in BV2 cells; settings: 22.0 μg/ml curcuminoid, LPS induction, FIGS. 4 and 5
Procedure: as §1, §2, §3, §4, §5

[3] = system: MSK1 serine 376 phosphorylation; test: Western blot of MSK1 phosphorylated at serine 376 in BV2 cells; settings: 22.0 μg/ml curcuminoid, LPS induction, FIGS. 10 and 11
Procedure: as §1, with “incubation. […]” for “incubation.”
as §4, §5

[4] = system: miRNA148a; test: RT qPCR of miRNA148a levels in BV2 cells; settings: 22 μg/ml curcuminoid, 30 min pre-treatment, with or without LPS, FIG. 3
Procedure: Reverse transcriptase (RT) quantitative PCR (RT qPCR) was performed to measure miRNA 148a levels in cells that were treated with curcumin I, II, or III, or a control. More particularly, six-well plates were seeded with BV2 cells at a concentration of about 1.5×10^6 BV2 cells per well. Drug (curcumin I, II, or III) treatment was carried out in the same manner as was executed for the western blot experimentation described in Example 3 below. Ten wells were prepared and, upon confluence, the next day the drug treatment was designed to evaluate basal influence of curcumin extract, curcumin I, curcumin II, curcumin III, as well as each curcumin drug with LPS stimulation. After 30 minutes of incubation with the drug treatment, LPS was used to induce the cells in each well labelled to be induced by LPS.
RNA was ultimately extracted from the cells to determine the levels of miRNA148a. A Qiagen miRNeasy Mini Kit (Cat. No. 217004) was used to extract total RNA along with miRNA. The miRNA was reverse transcribed to cDNA using a gene-specific RT primer and the miScript II RT Kit by Qiagen (Cat. No. 218161). An miRNA148a primer assay was acquired from Qiagen (Cat. No. 00003556). […]

[5] = system: MSK1; test: Western blot of cytoplasmic and nuclear MSK1 protein levels in BV2 cells; settings: 22.0 μg/ml curcuminoid, LPS induction
Procedure: as §1, with “incubation. […]” for “incubation.”
as §4, §5

SMILES | inhibition of NFkB-p65 serine 276 phosphorylation [1] | inhibition of NFkB-p65 nucleotranslocation (cytosolic and nuclear NFkB-p65) [2] | inhibition of MSK1 serine 376 phosphorylation [3] | effect on miRNA148a levels [4] | effect on MSK1 protein levels in the cytoplasm ([5]; FIG. 8) | effect on MSK1 protein levels in the nucleus ([5]; FIG. 9)
COc1cc(/C=C/C(=O)/C=C(O)/C=C/c2ccc(O)c(OC)c2)ccc1O [curcumin I, (1E,6E)-1,7-Bis(4-hydroxy-3-methoxyphenyl)-1,6-heptadiene-3,5-dione] | moderately inhibit | not significantly inhibited |  |  |  | 
COc1cc(/C=C/C(=O)CC(=O)/C=C/c2ccc(O)cc2)ccc1O [curcumin II, (1E,6E)-1-(4-Hydroxy-3-methoxyphenyl)-7-(4-hydroxyphenyl)hepta-1,6-diene-3,5-dione] | moderately inhibit | not significantly inhibited | inhibit | inhibits |  | 
O=C(/C=C/c1ccc(O)cc1)CC(=O)/C=C/c1ccc(O)cc1 [curcumin III, (1E,6E)-1,7-bis(4-hydroxyphenyl)hepta-1,6-diene-3,5-dione] | moderately inhibit | not significantly inhibited | inhibition | significantly increase | significantly inhibited and downregulated | significantly inhibited and downregulated
